Publication PMC7069944, “Amino acid levels determine metabolism and CYP450 function of hepatocytes and hepatoma cell lines” (Nature Communications, 2020)
Values joined by “and” are separate entries in the source; they are usually repeats but may differ in a detail not shown here. Equal values may be shown once.

What was measured:
HepG2 = experiment: Repeated-exposure DILI training compounds, resazurin conversion, HepG2; conditions: replicates, listed as Triglitazone
Method in brief: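 Viability by resazurin conversion, correlated with Cmax, was assessed after drug exposure in 384-well cultures of differentiated PSCs and of HepG2 (40,000 cells/well). Dosing began 8 h post-attachment, with untreated wells as negative control.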

HLC = experiment: Repeated-exposure DILI training compounds, resazurin conversion, HLC; conditions: replicates, listed as Triglitazone
Method in brief: (§1)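 PSC-derived hepatocyte-like cells were differentiated in 384-well plates, and drugs were added after 8 h of attachment. Viability was measured by resazurin conversion and related to therapeutic Cmax values, with untreated wells as negative control.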

HC3X = experiment: Repeated-exposure DILI training compounds, resazurin conversion, HC3X; conditions: for resazurin conversion (Supplementary Figure 7D): HC3X AAGLY D40, replicates, listed as Triglitazone
Method in brief: as §1

HC6X = experiment: Repeated-exposure DILI training compounds, resazurin conversion, HC6X; conditions: replicates, listed as Triglitazone
Method in brief: as §1

Cc1c(C)c2c(c(C)c1O)CCC(C)(COc1ccc(CC3SC(=O)NC3=O)cc1)O2 (centres unmarked) [troglitazone]
resazurin conversion (Supplementary Figure 7D) (HepG2; HepG2 AAGLY D30, 3 uM): 98.3 and 94.5 and 92
resazurin conversion (Supplementary Figure 7D) (HepG2; HepG2 AAGLY D30, 5 uM): 68.5 and 110.9 and 79 and 93.8 and 74.1 and 107
resazurin conversion (Supplementary Figure 7D) (HepG2; HepG2 AAGLY D30, 10 uM): 74 and 89.9 and 83.3 and 84.8 and 74.9 and 104.6
resazurin conversion (Supplementary Figure 7D) (HepG2; HepG2 AAGLY D30, 30 uM): 79.1 and 100.2 and 93 and 115.8 and 83.4 and 116.8
resazurin conversion (Supplementary Figure 7D) (HepG2; HepG2 AAGLY D30, 50 uM): 83.1 and 117.7 and 95.2 and 107.4 and 94.4 and 118.1
resazurin conversion (Supplementary Figure 7D) (HepG2; HepG2 AAGLY D30, 100 uM): 64.7 and 70 and 66.6 and 77.3 and 64.4 and 73.3
resazurin conversion (Supplementary Figure 7D) (HepG2; HepG2 AAGLY D30, 300 uM): 29.5 and 32.5 and 30.3 and 31.2 and 30.4 and 32
resazurin conversion (Supplementary Figure 7D) (HepG2; HepG2 AAGLY D30, 600 uM): 29.5 and 33.9 and 30.8 and 32.7 and 30.9 and 34.9
resazurin conversion (Supplementary Figure 7D) (HepG2; HepG2 AAGLY D30, 1200 uM): 31 and 33.3 and 30.9 and 31.3 and 30.2 and 34.1
resazurin conversion (Supplementary Figure 7D) (HepG2; HepG2 CTL D7, 3 uM): 96.5
resazurin conversion (Supplementary Figure 7D) (HepG2; HepG2 CTL D7, 5 uM): 108.7 and 103 and 108 and 101.8 and 110.4 and 108.6
resazurin conversion (Supplementary Figure 7D) (HepG2; HepG2 CTL D7, 10 uM): 100.5 and 91 and 96 and 94.6 and 100.7 and 102
resazurin conversion (Supplementary Figure 7D) (HepG2; HepG2 CTL D7, 30 uM): 107.7 and 102.1 and 104.6 and 106.5 and 111.7 and 103.3
resazurin conversion (Supplementary Figure 7D) (HepG2; HepG2 CTL D7, 50 uM): 106.3 and 99.2 and 103.6 and 101.1 and 106.7 and 102.4
resazurin conversion (Supplementary Figure 7D) (HepG2; HepG2 CTL D7, 100 uM): 21.4 and 9.6 and 9.2 and 17 and 16.3 and 15.4
resazurin conversion (Supplementary Figure 7D) (HepG2; HepG2 CTL D7, 300 uM): 8.5 (3×) and 8.1 and 8.3 and 8.2
resazurin conversion (Supplementary Figure 7D) (HepG2; HepG2 CTL D7, 600 uM): 8.3 and 8 (2×) and 8.4 and 7.9 (2×)
resazurin conversion (Supplementary Figure 7D) (HepG2; HepG2 CTL D7, 1200 uM): 9.4 and 9.5 and 9.7 and 9.2 and 9.3 and 9.1
resazurin conversion (Supplementary Figure 7D) (HLC; HLC AAGLY D40, 5 uM): 153.5 and 121.4 and 146 and 101.6 and 123.2 and 125.5
resazurin conversion (Supplementary Figure 7D) (HLC; HLC AAGLY D40, 10 uM): 135.4 and 92.9 and 151 and 74.5 and 125.5 and 149.7
resazurin conversion (Supplementary Figure 7D) (HLC; HLC AAGLY D40, 30 uM): 16.5 and 14.5 and 14 and 11.9 and 15.8 and 12.7
resazurin conversion (Supplementary Figure 7D) (HLC; HLC AAGLY D40, 50 uM): 11.8 (3×) and 11.4 (2×) and 11.7
resazurin conversion (Supplementary Figure 7D) (HLC; HLC AAGLY D40, 100 uM): 11.9 (2×) and 12.3 and 12.2 and 12.1 (2×)
resazurin conversion (Supplementary Figure 7D) (HLC; HLC AAGLY D40, 300 uM): 12.4 and 12.8 (2×) and 12.6 (2×) and 12.7
resazurin conversion (Supplementary Figure 7D) (HLC; HLC AAGLY D40, 600 uM): 13.8 (2×) and 13.7 and 13.2 and 13.4 and 13.6
resazurin conversion (Supplementary Figure 7D) (HLC; HLC AAGLY D40, 1200 uM): 14.9 and 14.8 and 14.3 and 15 and 14.7 and 14.5
resazurin conversion (Supplementary Figure 7D) (HLC; HLC LDM D40, 3 uM): 124.9 and 86.8 and 81.1 and 83.4
resazurin conversion (Supplementary Figure 7D) (HLC; HLC LDM D40, 5 uM): 112.5 and 109.2 and 104.5 and 65.4 and 87.8 and 121.6
resazurin conversion (Supplementary Figure 7D) (HLC; HLC LDM D40, 10 uM): 119.2 and 88.2 and 119.3 and 84.6 and 119 and 129.3
resazurin conversion (Supplementary Figure 7D) (HLC; HLC LDM D40, 30 uM): 64.9 and 19.9 and 24.5 and 26.5 and 51.6 and 125
resazurin conversion (Supplementary Figure 7D) (HLC; HLC LDM D40, 50 uM): 9.4 and 9.5 and 9.6 and 12.8 and 134 and 114.9
resazurin conversion (Supplementary Figure 7D) (HLC; HLC LDM D40, 100 uM): 9.6 and 9.9 and 9.7 and 9.4 and 10.4 and 10.1
resazurin conversion (Supplementary Figure 7D) (HLC; HLC LDM D40, 300 uM): 10.1 (2×) and 10.3 and 9.6 and 10 and 10.2
resazurin conversion (Supplementary Figure 7D) (HLC; HLC LDM D40, 600 uM): 10.4 and 10.5 and 10.2 (2×) and 10.8 and 11.3
resazurin conversion (Supplementary Figure 7D) (HLC; HLC LDM D40, 1200 uM): 11.2 (3×) and 11.3 and 11.1 and 11.5
resazurin conversion (Supplementary Figure 7D) (HC3X; 3 uM): 100.4 and 118.6 and 117.6 and 139.7 and 113 and 95.6
resazurin conversion (Supplementary Figure 7D) (HC3X; 5 uM): 108.1 and 113 and 110 and 124 and 122.3 and 125.6
resazurin conversion (Supplementary Figure 7D) (HC3X; 10 uM): 64.3 and 64.1 and 94.3 and 59.1 and 78.4 and 71.8
resazurin conversion (Supplementary Figure 7D) (HC3X; 30 uM): 7.7 (3×) and 7.6 (2×) and 7.8
resazurin conversion (Supplementary Figure 7D) (HC3X; 50 uM): 7.8 (4×) and 7.7 and 7.9
resazurin conversion (Supplementary Figure 7D) (HC3X; 100 uM): 7.7 and 7.9 (2×) and 8 (2×) and 7.8
resazurin conversion (Supplementary Figure 7D) (HC3X; 300 uM): 8.6 (2×) and 8.5 and 8.4 and 8.7 and 8.3
resazurin conversion (Supplementary Figure 7D) (HC3X; 600 uM): 8.6 and 9 and 8.5 and 8.7 and 8.8 and 9.1
resazurin conversion (Supplementary Figure 7D) (HC3X; 1200 uM): 8.5 and 8.9 and 8.6 (2×) and 8.8 and 9
IC50/Cmax (HC3X; human): 1.6
resazurin conversion (Supplementary Figure 7D) (HC6X; HC6X AAGLY D40, 3 uM): 67.6 and 80.5 and 115.9 and 110.8
resazurin conversion (Supplementary Figure 7D) (HC6X; HC6X AAGLY D40, 5 uM): 97.5 and 124.6 and 75.2 and 88 and 91.2 and 78.9
resazurin conversion (Supplementary Figure 7D) (HC6X; HC6X AAGLY D40, 10 uM): 28.6 and 26.8 and 51 and 28.8 and 31.8 and 23.3
resazurin conversion (Supplementary Figure 7D) (HC6X; HC6X AAGLY D40, 30 uM): 17.6 and 19.6 and 21.9 and 19.3 and 17.4 and 18.4
resazurin conversion (Supplementary Figure 7D) (HC6X; HC6X AAGLY D40, 50 uM): 18.5 and 22.2 and 22.6 and 19.7 and 17.5 and 18.3
resazurin conversion (Supplementary Figure 7D) (HC6X; HC6X AAGLY D40, 100 uM): 17.7 (2×) and 19.3 and 19.5 and 17.5 and 18.3
resazurin conversion (Supplementary Figure 7D) (HC6X; HC6X AAGLY D40, 300 uM): 18.9 and 19.1 and 19.4 (2×) and 19.9 and 18.8
resazurin conversion (Supplementary Figure 7D) (HC6X; HC6X AAGLY D40, 600 uM): 20.5 and 21.3 and 23.4 and 22.4 (2×) and 23.3
resazurin conversion (Supplementary Figure 7D) (HC6X; HC6X AAGLY D40, 1200 uM): 19.6 and 19.4 and 20.1 and 19.9 and 18.6 and 18.9
resazurin conversion (Supplementary Figure 7D) (HC6X; HC6X AAGLY D40 Remove dox, 5 uM): 197.5 and 139.5 and 221.6 and 148.2 and 134.8 and 149.8
resazurin conversion (Supplementary Figure 7D) (HC6X; HC6X AAGLY D40 Remove dox, 10 uM): 133 and 100.2 and 218.5 and 104.9 and 119 and 93.7
resazurin conversion (Supplementary Figure 7D) (HC6X; HC6X AAGLY D40 Remove dox, 30 uM): 24.4 and 26.5 and 25.9 (2×) and 27.1 and 24.9
resazurin conversion (Supplementary Figure 7D) (HC6X; HC6X AAGLY D40 Remove dox, 50 uM): 23.5 (2×) and 23.1 and 23.9 and 23.4 and 23.3
resazurin conversion (Supplementary Figure 7D) (HC6X; HC6X AAGLY D40 Remove dox, 100 uM): 24.4 and 24.5 and 24 and 23.7 and 23.5 and 24.2
resazurin conversion (Supplementary Figure 7D) (HC6X; HC6X AAGLY D40 Remove dox, 300 uM): 25.6 and 24.8 (2×) and 25 (2×) and 24.6
resazurin conversion (Supplementary Figure 7D) (HC6X; HC6X AAGLY D40 Remove dox, 600 uM): 26.9 and 26.7 and 26.1 (2×) and 25.7 and 26.3
resazurin conversion (Supplementary Figure 7D) (HC6X; HC6X AAGLY D40 Remove dox, 1200 uM): 28.5 (2×) and 27.6 and 27.4 and 27.9 and 28.4
